Test results taken from patent US7365053B2, “Selective N-acylation of A82846 glygopeptides analogs” (priority 2000, dated 2008).
≈ marks a conversion by molar mass, not a printed value.

Assays:
[1] = system: Enterococcus faecalis 2041; experiment: Broth micro-dilution MIC; type: cell-based; settings: BHI medium
Method: (§1) The compounds of the present invention have in vitro activity against Gram-positive pathogenic bacteria. The antibacterial activity of the present compounds is illustrated in Tables III and IV. The minimal inhibitory concentrations (MICs) were determined using a standard broth micro-dilution assay. Table IV presents a comparison of the activity of illustrative compounds against representative vancomycin-resistant and vancomycin-sensitive enterococci (Enterococcus faecium and Enterococcus faecalis), mean geometric MIC (mcg/mL), as determined by the standard broth microdilution assay.
(§2) Assays for antimicrobial activity were performed using microbroth susceptibility testing methods as described by the NCCLS (National Committee for Clinical Laboratories Standards. 1990. Approved standard M7-A2. Methods for dilution antimicrobial susceptibility testing for bacteria that grow aerobically, 2 ed., Villanova Pa.). Brain-heart infusion medium (BHI) was used for testing of enterococci, and NCCLS recommendations for medium were followed for other bacteria.

[2] = system: Enterococcus faecalis 276; experiment: Broth micro-dilution MIC; type: cell-based; settings: BHI medium
Method: as §1, §2

[3] = system: Enterococcus faecium 180-1; experiment: Broth micro-dilution MIC; type: cell-based; settings: BHI medium
Method: as §1, §2

[4] = system: Enterococcus faecium 180; experiment: Broth micro-dilution MIC; type: cell-based; settings: BHI medium
Method: as §1, §2

[5] = system: Enterococcus gallinarum 245; experiment: Broth micro-dilution MIC; type: cell-based; settings: BHI medium
Method: as §1, §2

[6] = system: Escherichia coli EC14; experiment: Broth micro-dilution MIC; type: cell-based
Method: as §1, §2

[7] = system: Haemophilus influenzae RD; experiment: Broth micro-dilution MIC; type: cell-based
Method: as §1, §2

[8] = system: Staphylococcus aureus 446; experiment: Broth micro-dilution MIC; type: cell-based
Method: as §1, §2

[9] = system: Staphylococcus aureus 447; experiment: Broth micro-dilution MIC; type: cell-based
Method: as §1, §2

[10] = system: Staphylococcus aureus 489; experiment: Broth micro-dilution MIC; type: cell-based
Method: as §1, §2

[11] = system: Staphylococcus aureus 491; experiment: Broth micro-dilution MIC; type: cell-based
Method: as §1, §2

[12] = system: Staphylococcus aureus S13E; experiment: Broth micro-dilution MIC; type: cell-based
Method: as §1, §2

[13] = system: Staphylococcus aureus SA1199A; experiment: Broth micro-dilution MIC; type: cell-based
Method: as §1, §2

[14] = system: Staphylococcus aureus SA1199B; experiment: Broth micro-dilution MIC; type: cell-based
Method: as §1, §2

[15] = system: Staphylococcus aureus SA1199; experiment: Broth micro-dilution MIC; type: cell-based
Method: as §1, §2

[16] = system: Staphylococcus aureus X400; experiment: Broth micro-dilution MIC; type: cell-based
Method: as §1, §2

[17] = system: Staphylococcus aureus X778; experiment: Broth micro-dilution MIC; type: cell-based
Method: as §1, §2

[18] = system: Staphylococcus epidermidis 270; experiment: Broth micro-dilution MIC; type: cell-based
Method: as §1, §2

[19] = system: Staphylococcus haemolyticus 105; experiment: Broth micro-dilution MIC; type: cell-based
Method: as §1, §2

[20] = system: Staphylococcus haemolyticus 415; experiment: Broth micro-dilution MIC; type: cell-based
Method: as §1, §2

[21] = system: Streptococcus pneumoniae P1; experiment: Broth micro-dilution MIC; type: cell-based
Method: as §1, §2

[22] = system: Streptococcus pyogenes C203; experiment: Broth micro-dilution MIC; type: cell-based
Method: as §1, §2

[23] = system: vancomycin-resistant enterococci; experiment: In vitro activity against enterococci, broth microdilution; type: cell-based, Enterococcus faecium and Enterococcus faecalis; settings: representative vancomycin-resistant enterococci (E. faecium and E. faecalis); BHI medium
Method: as §1, §2

[24] = system: vancomycin-sensitive enterococci; experiment: as above; type: cell-based, Enterococcus faecium and Enterococcus faecalis; settings: representative vancomycin-sensitive enterococci (E. faecium and E. faecalis); BHI medium
Method: as §1, §2

SMILES	MIC [1]	MIC [2]	MIC [3]	MIC [4] [µg/mL]	MIC [5] [µg/mL]	MIC [6] [µg/mL]	MIC [8] [µg/mL]	MIC [9] [µg/mL]	MIC [10]	MIC [11]	MIC [12]	MIC [13]	MIC [14] [µg/mL]	MIC [15] [µg/mL]	MIC [16] [µg/mL]	MIC [17]	MIC [18] [µg/mL]	MIC [19]	MIC [20] [µg/mL]	MIC [21]	also measured
CNC(CC(C)C)C(=O)NC1C(=O)NC(CC(N)=O)C(=O)NC2C(=O)NC3C(=O)NC(C(=O)NC(C(=O)O)c4cc(O)cc(O)c4-c4cc3ccc4O)C(OC3CC(C)(NC(=O)c4ccc(-c5ccccc5)cc4)C(O)C(C)O3)c3ccc(c(Cl)c3)Oc3cc2cc(c3OC2OC(CO)C(O)C(O)C2OC2CC(C)(N)C(O)C(C)O2)Oc2ccc(cc2Cl)C1O (centres unmarked) [Example 2]	1 µg/mL (≈ 0.564 µM)	1 µg/mL (≈ 0.564 µM)	1 µg/mL (≈ 0.564 µM)	32 (≈ 18.1 µM)	>64	>64	8 (≈ 4.51 µM)	32 (≈ 18.1 µM)	0.5 µg/mL (≈ 0.282 µM)	1 µg/mL (≈ 0.564 µM)	4 µg/mL (≈ 2.26 µM)	1 µg/mL (≈ 0.564 µM)	2 (≈ 1.13 µM)	4 (≈ 2.26 µM)	2 (≈ 1.13 µM)	2 µg/mL (≈ 1.13 µM)	32 (≈ 18.1 µM)	2 µg/mL (≈ 1.13 µM)	>64	≦.06 μg/ml	MIC [7]: >64 µg/mL; MIC [22]: ≦.06 μg/ml; Mean geometric MIC, Vancomycin Resistant Strains [23]: >25 µg/mL; Mean geometric MIC, Vancomycin Sensitive Strains [24]: 0.38 µg/mL
CCCCCCCCOc1ccc(C(=O)NC2(C)CC(OC3C(Oc4c5cc6cc4Oc4ccc(cc4Cl)C(OC4CC(C)(N)C(O)C(C)O4)C4NC(=O)C(NC(=O)C6NC(=O)C(CC(N)=O)NC(=O)C(NC(=O)C(CC(C)C)NC)C(O)c6ccc(c(Cl)c6)O5)c5ccc(O)c(c5)-c5c(O)cc(O)cc5C(C(=O)O)NC4=O)OC(CO)C(O)C3O)OC(C)C2O)cc1 (centres unmarked) [Example 6]	0.25 µg/mL (≈ 0.137 µM)	1 µg/mL (≈ 0.548 µM)	0.125 µg/mL (≈ 0.0685 µM)	0.25 (≈ 0.137 µM)	8 (≈ 4.38 µM)	>64	2 (≈ 1.1 µM)	8 (≈ 4.38 µM)	1 µg/mL (≈ 0.548 µM)	2 µg/mL (≈ 1.1 µM)	8 µg/mL (≈ 4.38 µM)	0.25 µg/mL (≈ 0.137 µM)	2 (≈ 1.1 µM)	4 (≈ 2.19 µM)	4 (≈ 2.19 µM)	2 µg/mL (≈ 1.1 µM)	8 (≈ 4.38 µM)	0.5 µg/mL (≈ 0.274 µM)	8 (≈ 4.38 µM)	0.25 µg/mL (≈ 0.137 µM)	MIC [7]: >64 µg/mL; MIC [22]: 0.125 µg/mL (≈ 0.0685 µM); Mean geometric MIC, Vancomycin Resistant Strains [23]: 11.3 µg/mL; Mean geometric MIC, Vancomycin Sensitive Strains [24]: 1.2 µg/mL
CNC(CC(C)C)C(=O)NC1C(=O)NC(CC(N)=O)C(=O)NC2C(=O)NC3C(=O)NC(C(=O)NC(C(=O)O)c4cc(O)cc(O)c4-c4cc3ccc4O)C(OC3CC(C)(NC(=O)CCCCCCCc4ccccc4)C(O)C(C)O3)c3ccc(c(Cl)c3)Oc3cc2cc(c3OC2OC(CO)C(O)C(O)C2OC2CC(C)(N)C(O)C(C)O2)Oc2ccc(cc2Cl)C1O (centres unmarked) [Example 12]	≦.06 μg/ml	≦.06 μg/ml	≦.06 μg/ml	2 (≈ 1.11 µM)	8 (≈ 4.46 µM)	>64	0.125 (≈ 0.0696 µM)	2 (≈ 1.11 µM)	≦.06 μg/ml	≦.06 μg/ml	≦.06 μg/ml	≦.06 μg/ml	0.125 (≈ 0.0696 µM)	0.25 (≈ 0.139 µM)	0.125 (≈ 0.0696 µM)	≦.06 μg/ml	2 (≈ 1.11 µM)	≦.06 μg/ml	8 (≈ 4.46 µM)	≦.06 μg/ml	MIC [22]: ≦.06 μg/ml; Mean geometric MIC, Vancomycin Resistant Strains [23]: 45 µg/mL; Mean geometric MIC, Vancomycin Sensitive Strains [24]: 0.33 µg/mL
